Measurements published in PubChem BioAssay AID1845204 (Molecular Pharmacology Branch, DTP, NCI, 2023).

System: HSSY-II tumor spheroid viability
Assay: Anticancer human tumor HSSY-II cell line growth inhibition;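 further: spheroids exposed to compounds for seven days before reading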;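 on viability, T/C: percent of DMSO vehicle control viability so 100% = untreated level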
Settings: spheroids with HUVEC and MSC; for IC50: curve of first compound; for viability, T/C: stronger effect = lower value
Procedure, shortened: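 Single agents and combinations were tested on spheroids built from tumor cells plus HUVEC and hMSC, at half-log dilutions starting at or near clinical Cmax, else 10 microM; final DMSO 0.25% (v/v).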

[1] = second compound 1 µM, first compound 0.0316 µM
[2] = second compound 1 µM, first compound 0.1 µM
[3] = second compound 1 µM, first compound 0.316 µM
[4] = second compound 1 µM, first compound 1 µM
[5] = second compound 1 µM, first compound 3.16 µM
[6] = second compound 1 µM, first compound 10 µM
[7] = second compound 3.16 µM, first compound 0.0316 µM
[8] = second compound 3.16 µM, first compound 0.1 µM
[9] = second compound 3.16 µM, first compound 0.316 µM
[10] = second compound 3.16 µM, first compound 1 µM
[11] = second compound 3.16 µM, first compound 3.16 µM
[12] = second compound 3.16 µM, first compound 10 µM
[13] = second compound 10 µM, first compound 0.0316 µM
[14] = second compound 10 µM, first compound 0.1 µM
[15] = second compound 10 µM, first compound 0.316 µM
[16] = second compound 10 µM, first compound 1 µM
[17] = second compound 10 µM, first compound 3.16 µM
[18] = second compound 10 µM, first compound 10 µM
[19] = second compound 31.6 µM, first compound 0.0316 µM
[20] = second compound 31.6 µM, first compound 0.1 µM
[21] = second compound 31.6 µM, first compound 0.316 µM
[22] = second compound 31.6 µM, first compound 1 µM
[23] = second compound 31.6 µM, first compound 3.16 µM
[24] = second compound 31.6 µM, first compound 10 µM
[25] = second compound 100 µM, first compound 0.0316 µM
[26] = second compound 100 µM, first compound 0.1 µM
[27] = second compound 100 µM, first compound 0.316 µM
[28] = second compound 100 µM, first compound 1 µM
[29] = second compound 100 µM, first compound 3.16 µM
[30] = second compound 100 µM, first compound 10 µM

For `CC1COCCN1c1cc(-c2ccnn2C)c2ccnc(-c3ccn[nH]3)c2n1` (stereo not given) + Cn1nnc2c(C(N)=O)ncn2c1=O, the IC50 (second compound 1 µM) was under 0.0316 µM, the IC50 (second compound 3.16 µM) was under 0.0316 µM and the IC50 (second compound 10 µM) was under 0.0316 µM. The IC50 (second compound 31.6 µM) was under 0.0316 µM, the IC50 (second compound 100 µM) was under 0.0316 µM and the viability, T/C [1] was 29%. The viability, T/C [2] was 6.4%, the viability, T/C [3] was 2.45% and the viability, T/C [4] was 1.92%. It also gave a viability, T/C [5] of 1.78%, a viability, T/C [6] of 2.4% and a viability, T/C [7] of 25.1%. For the same compound, the viability, T/C [8] was 6.11%, the viability, T/C [9] was 2.71% and the viability, T/C [10] was 2.03%. The viability, T/C [11] was 1.93%, the viability, T/C [12] was 2.28% and the viability, T/C [13] was 19%. The viability, T/C [14] was 6.18%, the viability, T/C [15] was 2.63% and the viability, T/C [16] was 2%. The viability, T/C [17] was 1.88%, the viability, T/C [18] was 2.59% and the viability, T/C [19] was 16.2%. It also gave a viability, T/C [20] of 4.45%, a viability, T/C [21] of 2.43% and a viability, T/C [22] of 2%. For the same compound, the viability, T/C [23] was 2.1%, the viability, T/C [24] was 2.35% and the viability, T/C [25] was 6.2%. It also gave a viability, T/C [26] of 4.15%, a viability, T/C [27] of 2.65% and a viability, T/C [28] of 2.04%. For the same compound, the viability, T/C [29] was 1.79% and the viability, T/C [30] was 1.82%.
In the case of `COc1cc(C)[nH]c(=O)c1CN1CCc2c(Cl)cc(C(OC)C3COC3)c(Cl)c2C1=O` (stereo not given) + Cn1nnc2c(C(N)=O)ncn2c1=O, the IC50 (second compound 1 µM) is reported as over 10 µM, the IC50 (second compound 3.16 µM) is reported as over 10 µM and the IC50 (second compound 10 µM) is reported as over 10 µM. For the same compound, the IC50 (second compound 31.6 µM) was over 10 µM, the IC50 (second compound 100 µM) was over 10 µM and the viability, T/C [1] was 96.7%. The viability, T/C [2] was 93.1%, the viability, T/C [3] was 69.1% and the viability, T/C [4] was 69.2%. It also gave a viability, T/C [5] of 63.2%, a viability, T/C [6] of 63% and a viability, T/C [7] of 96.7%. The viability, T/C [8] was 84.2%, the viability, T/C [9] was 76.5% and the viability, T/C [10] was 66.2%. For the same compound, the viability, T/C [11] was 64.6%, the viability, T/C [12] was 60.9% and the viability, T/C [13] was 95.3%. For the same compound, the viability, T/C [14] was 94.2%, the viability, T/C [15] was 75.6% and the viability, T/C [16] was 66.8%. It also gave a viability, T/C [17] of 62.7%, a viability, T/C [18] of 63% and a viability, T/C [19] of 99.7%. For the same compound, the viability, T/C [20] was 96.3%, the viability, T/C [21] was 76.9% and the viability, T/C [22] was 66.8%. It also gave a viability, T/C [23] of 65.8%, a viability, T/C [24] of 64.6% and a viability, T/C [25] of 96.7%. It also gave a viability, T/C [26] of 91.4%, a viability, T/C [27] of 74.8% and a viability, T/C [28] of 67.4%. It also gave a viability, T/C [29] of 68.9% and a viability, T/C [30] of 63.7%.
`Cc1cc(C)c(CNC(=O)c2cc(-c3ccc(CN4CCOCC4)cc3)cc3c2cnn3C2CCCC2)c(=O)[nH]1` + Cn1nnc2c(C(N)=O)ncn2c1=O was tested, and the IC50 (second compound 1 µM) was over 10 µM, the IC50 (second compound 3.16 µM) was over 10 µM and the IC50 (second compound 10 µM) was over 10 µM. For the same compound, the IC50 (second compound 31.6 µM) was over 10 µM, the IC50 (second compound 100 µM) was over 10 µM and the viability, T/C [1] was 98.4%. For the same compound, the viability, T/C [2] was 105%, the viability, T/C [3] was 92.8% and the viability, T/C [4] was 97.2%. It also gave a viability, T/C [5] of 91.4%, a viability, T/C [6] of 79.8% and a viability, T/C [7] of 101%. It also gave a viability, T/C [8] of 99.1%, a viability, T/C [9] of 95.1% and a viability, T/C [10] of 98.7%. For the same compound, the viability, T/C [11] was 89.9%, the viability, T/C [12] was 72.7% and the viability, T/C [13] was 98%. It also gave a viability, T/C [14] of 98.2%, a viability, T/C [15] of 100% and a viability, T/C [16] of 93.5%. For the same compound, the viability, T/C [17] was 92.6%, the viability, T/C [18] was 68.4% and the viability, T/C [19] was 104%. It also gave a viability, T/C [20] of 98%, a viability, T/C [21] of 94.4% and a viability, T/C [22] of 102%. For the same compound, the viability, T/C [23] was 88.4%, the viability, T/C [24] was 73.8% and the viability, T/C [25] was 94%. For the same compound, the viability, T/C [26] was 93.9%, the viability, T/C [27] was 91% and the viability, T/C [28] was 95.5%. The viability, T/C [29] was 85.2% and the viability, T/C [30] was 70.4%.
With `Cc1sc2c(c1C)C(c1ccc(Cl)cc1)=NC(CC(=O)Nc1ccc(O)cc1)c1nnc(C)n1-2` (stereo not given) + Cn1nnc2c(C(N)=O)ncn2c1=O the IC50 (second compound 1 µM) was 0.164 µM, the IC50 (second compound 3.16 µM) was 0.178 µM and the IC50 (second compound 10 µM) was 0.158 µM. The IC50 (second compound 31.6 µM) was 0.194 µM, the IC50 (second compound 100 µM) was 0.169 µM and the viability, T/C (second compound 1 µM, first compound 0.00949 µM) was 98.5%. For the same compound, the viability, T/C (second compound 1 µM, first compound 0.03 µM) was 85.1%, the viability, T/C (second compound 1 µM, first compound 0.0949 µM) was 64.7% and the viability, T/C (second compound 1 µM, first compound 0.3 µM) was 34.3%. It also gave a viability, T/C (second compound 1 µM, first compound 0.949 µM) of 19.3%, a viability, T/C (second compound 1 µM, first compound 3 µM) of 12.8% and a viability, T/C (second compound 3.16 µM, first compound 0.00949 µM) of 101%. For the same compound, the viability, T/C (second compound 3.16 µM, first compound 0.03 µM) was 90.6%, the viability, T/C (second compound 3.16 µM, first compound 0.0949 µM) was 65.9% and the viability, T/C (second compound 3.16 µM, first compound 0.3 µM) was 35.9%. For the same compound, the viability, T/C (second compound 3.16 µM, first compound 0.949 µM) was 21.6%, the viability, T/C (second compound 3.16 µM, first compound 3 µM) was 12% and the viability, T/C (second compound 10 µM, first compound 0.00949 µM) was 101%. The viability, T/C (second compound 10 µM, first compound 0.03 µM) was 92.9%, the viability, T/C (second compound 10 µM, first compound 0.0949 µM) was 62.3% and the viability, T/C (second compound 10 µM, first compound 0.3 µM) was 32.6%. For the same compound, the viability, T/C (second compound 10 µM, first compound 0.949 µM) was 20.1%, the viability, T/C (second compound 10 µM, first compound 3 µM) was 11.2% and the viability, T/C (second compound 31.6 µM, first compound 0.00949 µM) was 105%. For the same compound, the viability, T/C (second compound 31.6 µM, first compound 0.03 µM) was 98%, the viability, T/C (second compound 31.6 µM, first compound 0.0949 µM) was 69.3% and the viability, T/C (second compound 31.6 µM, first compound 0.3 µM) was 37.3%. It also gave a viability, T/C (second compound 31.6 µM, first compound 0.949 µM) of 18.7%, a viability, T/C (second compound 31.6 µM, first compound 3 µM) of 8.46% and a viability, T/C (second compound 100 µM, first compound 0.00949 µM) of 98.1%. The viability, T/C (second compound 100 µM, first compound 0.03 µM) was 89.5%, the viability, T/C (second compound 100 µM, first compound 0.0949 µM) was 68.7% and the viability, T/C (second compound 100 µM, first compound 0.3 µM) was 31.2%. For the same compound, the viability, T/C (second compound 100 µM, first compound 0.949 µM) was 13.2% and the viability, T/C (second compound 100 µM, first compound 3 µM) was 5.25%.
With `[2H]c1nc(C)nc([2H])c1-c1cc(NC[C@@H](C)c2cccc3c(C(=O)NC)ccnc23)ncn1` + Cn1nnc2c(C(N)=O)ncn2c1=O the IC50 (second compound 1 µM) was over 10 µM, the IC50 (second compound 3.16 µM) was over 10 µM and the IC50 (second compound 10 µM) was over 10 µM. It also gave an IC50 (second compound 31.6 µM) of over 10 µM, an IC50 (second compound 100 µM) of over 10 µM and a viability, T/C [1] of 103%. It also gave a viability, T/C [2] of 101%, a viability, T/C [3] of 100% and a viability, T/C [4] of 96.8%. It also gave a viability, T/C [5] of 93.8%, a viability, T/C [6] of 91.7% and a viability, T/C [7] of 104%. For the same compound, the viability, T/C [8] was 100%, the viability, T/C [9] was 98.5% and the viability, T/C [10] was 107%. The viability, T/C [11] was 94.1%, the viability, T/C [12] was 90.8% and the viability, T/C [13] was 98.2%. It also gave a viability, T/C [14] of 103%, a viability, T/C [15] of 101% and a viability, T/C [16] of 97.5%. The viability, T/C [17] was 95.3%, the viability, T/C [18] was 86.2% and the viability, T/C [19] was 108%. The viability, T/C [20] was 102%, the viability, T/C [21] was 106% and the viability, T/C [22] was 102%. The viability, T/C [23] was 97.2%, the viability, T/C [24] was 94.4% and the viability, T/C [25] was 91.1%. The viability, T/C [26] was 94.4%, the viability, T/C [27] was 95.2% and the viability, T/C [28] was 91.4%. For the same compound, the viability, T/C [29] was 90.9% and the viability, T/C [30] was 85%.
